The numbers were not newly measured in patent US20090022779A1, “Phenytoin Formulations, and Uses Thereof in Wound Healing” (Royal College of Surgeons in Ireland, priority 2004, published 2009), which cites them from elsewhere.

The structures appear in SMILES notation.

For the series the following is noted: background statement.

Consider `O=C1N=C([O-])NC1(c1ccccc1)c1ccccc1.[Na+]` [Phenyloin sodium salt], for which the solubility in water result was “soluble”.
As for `O=C1NC(=O)C(c2ccccc2)(c2ccccc2)N1` [Phenyloin, 5,5-diphenylimidazolidine-2,4-dione], the solubility in water result is “only slightly soluble”.
